Assay results reported in paper PMC9953308, “The Mechanism of Enantioselective Neurosteroid Actions on GABAA Receptors” (Biomolecules, 2023).

Tests used:
[1] = biological target: T1, α1β3 GABAA receptor (β3 subunit; β3-α1 intersubunit site) (Homo sapiens, UniProt P14867+P28472); experiment: competitive prevention of KK200/KK123 photolabeling with MS readout; EC50 from oocyte two-electrode voltage clamp (potentiation of GABA currents); type: cell-based
T1 construct: gene GABRB3; human α1-8xHis-FLAG and human β3 GABAA receptor in HEK-T-Rex-293 membranes; human α1β3 in Xenopus oocytes for EC50; with GABAA receptor α1 subunit (GABRA1)
T1 sequence (P28472 26-473): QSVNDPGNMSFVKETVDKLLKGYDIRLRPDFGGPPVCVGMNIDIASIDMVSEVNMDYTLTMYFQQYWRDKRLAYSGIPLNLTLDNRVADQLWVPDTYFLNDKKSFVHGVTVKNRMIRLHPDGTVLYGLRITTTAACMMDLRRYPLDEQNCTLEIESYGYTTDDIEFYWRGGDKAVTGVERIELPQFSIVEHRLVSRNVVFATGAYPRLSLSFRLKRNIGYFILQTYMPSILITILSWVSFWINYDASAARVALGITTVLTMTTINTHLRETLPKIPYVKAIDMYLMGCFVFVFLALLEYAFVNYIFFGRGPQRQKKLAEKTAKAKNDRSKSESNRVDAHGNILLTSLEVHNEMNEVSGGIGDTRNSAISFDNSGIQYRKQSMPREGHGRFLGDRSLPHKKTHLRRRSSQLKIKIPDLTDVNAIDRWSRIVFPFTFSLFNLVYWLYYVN
T1 sequence (P14867 28-456): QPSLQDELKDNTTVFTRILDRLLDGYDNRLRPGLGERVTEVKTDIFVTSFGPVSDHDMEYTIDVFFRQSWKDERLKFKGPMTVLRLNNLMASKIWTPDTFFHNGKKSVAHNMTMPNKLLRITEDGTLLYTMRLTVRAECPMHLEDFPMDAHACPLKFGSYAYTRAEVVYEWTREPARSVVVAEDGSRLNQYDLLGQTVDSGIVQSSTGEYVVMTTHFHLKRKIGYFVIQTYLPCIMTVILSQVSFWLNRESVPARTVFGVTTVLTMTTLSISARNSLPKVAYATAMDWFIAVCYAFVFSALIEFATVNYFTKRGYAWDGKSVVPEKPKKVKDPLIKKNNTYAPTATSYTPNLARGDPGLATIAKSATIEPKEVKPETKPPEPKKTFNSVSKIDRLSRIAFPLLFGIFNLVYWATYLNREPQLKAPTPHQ

[2] = biological target: T2, α1β3 GABAA receptor (α1 subunit) (Homo sapiens, UniProt P14867); experiment: photoaffinity labeling ([…]) with middle-down MS identification of adducted residue; type: binding
T2 construct: gene GABRA1; human α1-8xHis-FLAG and human β3 GABAA receptor in HEK-T-Rex-293 membranes; with GABAA receptor β3 subunit (GABRB3)
T2 sequence (P14867 28-456): T1 sequence (P14867 28-456)
T2 sequence (P28472 26-473 partner): T1 sequence (P28472 26-473)

[3] = biological target: T1, α1β3 GABAA receptor (β3 subunit; β3-α1 intersubunit site); experiment: competitive prevention of KK123 photolabeling with MS readout; EC50 from oocyte two-electrode voltage clamp (weak potentiation of GABA currents); type: cell-based

Work on CC(=O)[C@H]1CC[C@H]2[C@@H]3CC[C@H]4C[C@H](O)CC[C@]4(C)[C@H]3CC[C@]12C [ALLO, 3α-hydroxy-5α-pregnan-20-one] yielded an EC50 [1] of 0.08 ± 0.01 µM.
In the case of C#CCCO[C@@H]1C[C@@]2(C)[C@@H]3CC[C@]4(C)[C@H](CC[C@H]4OC)[C@H]3CC3(N=N3)[C@@H]2C[C@H]1O [KK152], the “photoaffinity labeling (30 μM) with middle-down MS identification of adducted re” value [2] is reported as “A fragmentation ion spectrum of this peptide identified Tyr415 as the site of KK152 adduction”.
CC(=O)[C@@H]1CC[C@@H]2[C@H]3CC[C@@H]4C[C@@H](O)CC[C@@]4(C)[C@@H]3CC[C@]21C [ent-ALLO, ent-allopregnanolone] showed an EC50 [3] of 2 ± 0.3 µM.
